From publication PMC7155171, “Probing the Open Global Health Chemical Diversity Library for Multistage-Active Starting Points for Next-Generation Antimalarials” (ACS Infectious Diseases, 2020)
Where two headings read alike, the source gives them in different places.

What was measured:
[1] = test system: P. falciparum Dd2 (PfLuc) line expressing firefly luciferase, asexual blood stage; assay: microbe, parasite or virus in culture; format: cell-based, Plasmodium falciparum; conditions: Plasmodium falciparum
P. falciparum Dd2 = assay: SYBR green I asexual blood stage proliferation assay (96 h); format: cell-based, Plasmodium falciparum; conditions: Plasmodium falciparum, DD2, 11-pt dose response, 96hr
[2] = DD2, read-out: CDD P. falciparum Luciferase ABS 11-pt Reconfirmation Dose Response (48hr): IC50 (μM), 11-pt dose response, 48hr
[3] = DD2, 8-pt dose response, 96hr, read-out: CDD P. falciparum Luciferase ABS 8-pt Reconfirmation Dose Response (96hr): IC50
[4] = DD2, 8-pt dose response, 96hr, read-out: CDD P. falciparum Luciferase ABS 8-pt Reconfirmation Dose Response (96hr): Maximum inhibition (%)
[5] = DD2, 11-pt dose response, 48hr, read-out: CDD P. falciparum Luciferase ABS 11-pt Reconfirmation Dose Response (48hr): Maximum inhibition (%)
[6] = DD2, 11-pt dose response, 96hr, read-out: CDD P. falciparum Luciferase ABS 11-pt Reconfirmation Dose Response (96hr): IC50
[7] = DD2, 11-pt dose response, 96hr, read-out: CDD P. falciparum Luciferase ABS 11-pt Reconfirmation Dose Response (96hr): Maximum inhibition (%)
[8] = Sybr Green I, read-out: CDD P. falciparum Sybr Green I ABS 11-pt Reconfirmation Dose Response (96hr): IC50
[9] = Sybr Green I, read-out: CDD P. falciparum Sybr Green I ABS 11-pt Reconfirmation Dose Response (96hr): Maximum inhibition (%)
[10] = 96 h incubation, Dd2 luciferase, read-out: 96 hour Pfluc IC50
[11] = DD2, read-out: P. falciparum Luciferase ABS 11-pt Reconfirmation Dose Response (48hr): IC50, 11-pt dose response, 48hr
[12] = DD2, 8-pt dose response, 96hr, read-out: P. falciparum Luciferase ABS 8-pt Reconfirmation Dose Response (96hr): IC50
[13] = DD2, 8-pt dose response, 96hr, read-out: P. falciparum Luciferase ABS 8-pt Reconfirmation Dose Response (96hr): Maximum inhibition (%)
[14] = DD2, 11-pt dose response, 96hr, read-out: P. falciparum Luciferase ABS 11-pt Reconfirmation Dose Response (96hr): IC50
[15] = DD2, 11-pt dose response, 96hr, read-out: P. falciparum Luciferase ABS 11-pt Reconfirmation Dose Response (96hr): Maximum inhibition (%)
[16] = read-out: P. falciparum Sybr Green I ABS 11-pt Reconfirmation Dose Response (96hr): IC50
[17] = read-out: P. falciparum Sybr Green I ABS 11-pt Reconfirmation Dose Response (96hr): Maximum inhibition (%)
[18] = DD2, 11-pt dose response, 48hr, read-out: P. falciparum Luciferase ABS 11-pt Reconfirmation Dose Response (48hr): Maximum inhibition (%)

Row | Compound | IC50 [1, 2] | IC50 [1, 3] | Emax [1, 4] | Emax [1, 5] | IC50 [1, 6] | Emax [1, 7] | IC50 (P. falciparum Dd2; [8]) | Emax (P. falciparum Dd2; [9]) | IC50 [1, 10] | IC50 [1, 11] | IC50 [1, 12] | Emax [1, 13] | IC50 [1, 14] | Emax [1, 15] | IC50 (P. falciparum Dd2; [16]) | Emax (P. falciparum Dd2; [17]) | Emax [1, 18]
1 | CN1CCC(O)(CNCc2ccc(F)c(C(F)(F)F)c2)CC1 [DDD01065665] | > 12.5 µM | 0.71 µM | 90.5% | 33.7% | 4.45 µM | 88.8% | 3170 nM | 86.1% |  |  |  |  |  |  |  |  | 
2 | CC1(C)CN(C(CNC2=NCCN2)c2ccc(Cl)cc2)CCO1 (stereo not drawn) [DDD01066238] | 0.786 µM | 0.55 µM | 80.3% | 64.5% | 3.52 µM | 81.2% | 3750 nM | 50.5% |  |  |  |  |  |  |  |  | 
3 | O=C(CC1CCCC1)NCCNCc1cccc2c1OCCO2 [DDD01067280] | > 12.5 µM | 1.09 µM | 84.7% | 64.2% | > 1.39 µM | 89.2% | > 4160 nM | 67% |  |  |  |  |  |  |  |  | 
4 | c1cc2c(cc1C1(CNC3=NCCN3)CCCC1)OCCO2 [DDD01067440] | 8.77 µM | 0.57 µM | 86.8% | 68.7% | 1.63 µM | 92% | 1240 nM | 65.6% |  |  |  |  |  |  |  |  | 
5 | Clc1ccc(C2(CNC3=NCCN3)CC2)cc1 [DDD01067441] | 1.96 µM | 0.55 µM | 95.1% | 96.7% | 0.613 µM | 99.9% | 760 nM | 101% |  |  |  |  |  |  |  |  | 
6 | Clc1ccc(C2(CNC3=NCCN3)CCCC2)cc1 [DDD01067443] | 5.56 µM | 0.25 µM | 94.9% | 90% | 0.995 µM | 98.3% | 2260 nM | 98.5% | 1 µM |  |  |  |  |  |  |  | 
7 | Clc1ccc(C2(CNC3=NCCN3)CCCCC2)cc1 [DDD01067446] | 2.9 µM | 0.22 µM | 96.3% | 97.1% | 0.731 µM | 99.6% | 1290 nM | 99.8% |  |  |  |  |  |  |  |  | 
8 | Fc1ccc(C2(CNC3=NCCN3)CCCC2)cc1 [DDD01067448] |  |  |  |  |  |  |  |  |  | 6.73 µM | 1.43 µM | 88.3% | 1.18 µM | 95.9% | 3300 nM | 94.1% | 
9 | CCN1CCCN(S(=O)(=O)c2cc3ccccc3o2)CC1 [DDD01067562] | 8.55 µM | 0.58 µM | 87.2% | 65% | 1.34 µM | 85.4% | 1460 nM | 73.1% |  |  |  |  |  |  |  |  | 
10 | O=C(Nc1nccs1)C1CCCN1Cc1ccccn1 (stereo not drawn) [DDD01068868] | 0.884 µM | 0.3 µM |  | 91.2% | 0.303 µM | 99.3% | 888 nM | 96.4% |  |  |  |  |  |  |  |  | 
11 | Cc1cccc(OC(C)C(=O)NCC2(N(C)C)CCCC2)c1 (stereo not drawn) [DDD01069466] | > 12.5 µM | 0.95 µM |  | 46.7% | 2.5 µM | 85.7% | 2140 nM | 64.8% |  |  |  |  |  |  |  |  | 
12 | CN1CCN(CC(NCc2ccc(F)c(F)c2)c2ccccc2)CC1 (stereo not drawn) [DDD01069631] | 5.37 µM | 0.58 µM | 89.5% | 78.3% | 0.913 µM | 94.6% | 4410 nM | 85.4% | 0.91 µM |  |  |  |  |  |  |  | 
13 | CC(C)(C)C(=O)NCCNCc1ccc(Cl)c2cccnc12 [DDD01070293] | > 12.5 µM | 1.05 µM | 82% | 37.6% | 1.51 µM | 83.4% | 2250 nM | 64.4% |  |  |  |  |  |  |  |  | 
14 | CCN1CCN(c2ccc(F)cc2C(C)NCc2ccccn2)CC1 (stereo not drawn) [DDD01070491] | > 12.5 µM | 0.83 µM | 82.8% | 53% | 1.9 µM |  | > 4160 nM | 73.8% |  |  |  |  |  |  |  |  | 
15 | CCN1CCN(c2ccc(F)cc2C(C)NCc2cscn2)CC1 (stereo not drawn) [DDD01070576] |  |  |  |  |  |  |  |  |  | > 12.5 µM | 1.25 µM | 87.1% | 2.44 µM |  | 7180 nM | 78.2% | 47.9%
16 | Cc1cc(Cl)ccc1S(=O)(=O)NCC(C)N1CCN(C)CC1 (stereo not drawn) [DDD01071406] |  |  |  |  |  |  |  |  |  | 6.35 µM | 1.66 µM | 87.3% | 4.93 µM | 86.6% | > 4160 nM |  | 56.6%

Row | Compound | IC50 [1, 2] | IC50 [1, 3] | Emax [1, 4] | Emax [1, 5] | IC50 [1, 6] | Emax [1, 7] | IC50 (P. falciparum Dd2; [8]) | Emax (P. falciparum Dd2; [9]) | IC50 [1, 10] | IC50 [1, 11] | IC50 [1, 12] | Emax [1, 13] | IC50 [1, 14] | Emax [1, 15] | IC50 (P. falciparum Dd2; [16]) | Emax (P. falciparum Dd2; [17]) | Emax [1, 18]
17 | COc1ccc(C(=O)NCCCOC(C)c2ccccc2)c(OC)c1 (stereo not drawn) [DDD01071935] | 9.88 µM | 1.03 µM |  | 67.4% | 3.26 µM | 90.2% | > 4160 nM | 72.8% |  |  |  |  |  |  |  |  | 
18 | OCCN1CCC(CNCc2ccc(Br)cc2)CC1 [DDD01072406] | 2.84 µM | 0.53 µM | 95.5% | 94.9% | 0.749 µM | 99.6% | 2010 nM | 92.7% |  |  |  |  |  |  |  |  | 
19 | O=C(c1ccccc1)C1CCN(Cc2cc3c(cc2O)CCC3)CC1 [DDD01073482] | 1.73 µM | 0.6 µM | 93.1% | 94.9% | 0.607 µM | 99.4% | 2300 nM |  |  |  |  |  |  |  |  |  | 
20 | CC(NCC1CCN(CCO)CC1)c1ccc(F)c(Cl)c1 (stereo not drawn) [DDD01073649] | 3.46 µM | 1.04 µM | 87% | 94.4% | 0.802 µM | 99.5% | 1900 nM | 91.9% | 0.8 µM |  |  |  |  |  |  |  | 
21 | CC(NCC1CCN(CCO)CC1)c1ccc(OC(F)(F)F)cc1 (stereo not drawn) [DDD01073716] | 3.68 µM | 0.46 µM | 95.5% |  | 0.546 µM | 99.2% | 2880 nM | 95.9% | 0.55 µM |  |  |  |  |  |  |  | 
22 | CC(NCC1CCN(CCO)CC1)c1cccc(Cl)c1 (stereo not drawn) [DDD01073717] | 3.01 µM | 0.56 µM | 94.9% | 93.9% | 0.988 µM | 99.8% | 1320 nM | 92.1% |  |  |  |  |  |  |  |  | 
23 | CC(NCC1CCN(CCO)CC1)c1ccc(Cl)cc1 (stereo not drawn) [DDD01073718] | 2.47 µM | 0.81 µM |  |  | 0.695 µM | 98.2% | 844 nM |  |  |  |  |  |  |  |  |  | 
24 | CC(NCC1CCN(CCO)CC1)c1ccc(C(F)(F)F)cc1 (stereo not drawn) [DDD01073719] | 4.64 µM | 0.52 µM | 92.5% |  | 0.614 µM | 98.9% | 2650 nM | 92.8% | 0.61 µM |  |  |  |  |  |  |  | 
25 | COc1ccc(CN2CCNC(=O)CC2)cc1SC(F)(F)F [DDD01074373] |  |  |  |  |  |  |  |  |  | > 4.16 µM | 1.28 µM |  | 0.735 µM | 70.4% | > 4160 nM | 51.3% | 57.7%
26 | CCN(CC)Cc1ccccc1NC(=O)N(C)Cc1ccccc1O [DDD01074443] | 3.95 µM | 0.88 µM | 90% | 89.7% | 3.26 µM | 95.8% | 6280 nM | 87.8% |  |  |  |  |  |  |  |  | 
27 | COCCOc1ccccc1CNCC1COC2(CCCC2)O1 (stereo not drawn) [DDD01074854] |  |  |  |  |  |  |  |  |  | > 12.5 µM | 1.89 µM | 84.3% | 2.71 µM | 75.6% | 2130 nM | 71.9% | 29.8%
28 | CCc1cc(CNCc2ccccc2N(C)C2CCN(C)CC2)on1 [DDD01074859] | > 12.5 µM | 0.92 µM | 83.3% | 55.6% | 3.22 µM | 82% | 9570 nM | 72% |  |  |  |  |  |  |  |  | 
29 | CN1CCC(N(C)c2ccccc2CNCc2ccco2)CC1 [DDD01074928] | 1.71 µM | 0.27 µM | 92.9% | 80.4% | 0.211 µM | 97.1% | 1100 nM | 94.3% | 0.21 µM |  |  |  |  |  |  |  | 
30 | Cc1noc(C)c1CNCc1ccccc1N(C)C1CCN(C)CC1 [DDD01074938] | > 12.5 µM | 0.59 µM | 91.9% | 61.9% | 1.55 µM | 86.7% | 2600 nM | 85.6% |  |  |  |  |  |  |  |  | 
31 | Cc1ccc(CNCc2cccc3cccnc23)c(OC2CCOC2)c1 (stereo not drawn) [DDD01075119] | 3.77 µM | 0.57 µM | 83.2% | 87.5% | 1.44 µM | 98.4% | > 4160 nM | 64.7% |  |  |  |  |  |  |  |  | 
